Calls of active or inactive are those of the source. Rule as the data show it, for most assays here: actives have a measured EC50 and inactives only a lower limit.
How the values were obtained:
[1] = luciferase reporter signal suppression in cells – H4 neuroglioma cells, luminescence, dose response (AID 1990); format: functional, cell-based
[2] = Luminescence Cell-Based Dose Response HTS to Identify Inhibitors of 5'UTR Stem-Loop Driven Prion Protein mRNA Translation in H4 Neuroglioblastoma Cells. [Related pubchem assays: 1827 (Project Summary), 1813 (Primary HTS)]; format: functional
[3] = alpha-synuclein stem-loop luciferase translation blockers – H4 neuroglioma cells, luminescence, confirmation (AID 1988); format: functional, cell-based
[4] = Luminescence Cell-Based Dose Confirmation HTS to Identify Activators of 5'UTR Stem-Loop Driven Alpha-Synuclein mRNA Translation in H4 Neuroglioblastoma Cells. [Related pubchem assays: 1829 (Project Summary), 1814 (Primary HTS)]; format: functional
[5] = Luminescence Cell-Based Dose Response HTS to Identify Activators of Luciferase Translation or Activity in H4 […] Cells. [Related pubchem assays: 1829 (Project Summary), 1814 (Primary HTS)]; format: functional
H4 = experiment: Luminescence Cell-Based Dose Response HTS to Identify Activators of 5'UTR Stem-Loop Driven Prion Protein mRNA Translation in H4 Neuroglioblastoma Cells. [Related pubchem assays: 1829 (Project Summary), 1814 (Primary HTS)]; format: functional; conditions: Homo sapiens
[6] = target: T1, Replicative DNA helicase DnaB (Mycobacterium tuberculosis, UniProt P9WMR3); experiment: DnaB intein splicing inhibitors, dose response, biochemical, cell-free fluorescence (AID 449749); format: functional
T1 sequence (P9WMR3 whole entry): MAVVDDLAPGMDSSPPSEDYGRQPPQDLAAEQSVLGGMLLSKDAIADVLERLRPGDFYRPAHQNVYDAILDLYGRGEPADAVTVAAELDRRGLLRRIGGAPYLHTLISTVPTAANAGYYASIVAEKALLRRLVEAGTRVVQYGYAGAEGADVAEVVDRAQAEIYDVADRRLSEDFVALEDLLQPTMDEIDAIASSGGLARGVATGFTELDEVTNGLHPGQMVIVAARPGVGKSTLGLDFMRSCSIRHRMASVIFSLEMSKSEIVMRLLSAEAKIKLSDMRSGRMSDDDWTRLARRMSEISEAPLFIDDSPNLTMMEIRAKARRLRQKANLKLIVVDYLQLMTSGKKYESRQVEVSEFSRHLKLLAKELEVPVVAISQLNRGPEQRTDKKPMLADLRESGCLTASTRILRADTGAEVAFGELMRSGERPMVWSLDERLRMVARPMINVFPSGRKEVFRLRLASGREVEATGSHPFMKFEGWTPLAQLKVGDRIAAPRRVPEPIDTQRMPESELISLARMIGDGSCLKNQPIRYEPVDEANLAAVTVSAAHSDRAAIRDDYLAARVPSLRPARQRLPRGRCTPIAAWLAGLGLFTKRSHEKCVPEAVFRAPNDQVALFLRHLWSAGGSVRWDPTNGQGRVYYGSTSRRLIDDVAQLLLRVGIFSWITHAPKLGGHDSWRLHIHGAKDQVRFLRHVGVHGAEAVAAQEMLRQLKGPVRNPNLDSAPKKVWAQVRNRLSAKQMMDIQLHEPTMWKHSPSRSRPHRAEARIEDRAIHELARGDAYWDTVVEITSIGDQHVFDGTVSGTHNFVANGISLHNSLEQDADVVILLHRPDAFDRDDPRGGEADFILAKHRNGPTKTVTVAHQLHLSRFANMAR

Protein RecA = target: T2, Protein RecA (Mycobacterium tuberculosis, UniProt P9WHJ3); experiment: Fluorescence Cell-Free Homogeneous Dose Retest to Identify Inhibitors of RecA-Intein Splicing Activity. [Related pubchem assays (depositor defined):AID2097, AID2223, AID489010, AID492950]; format: functional
T2 sequence (P9WHJ3 whole entry): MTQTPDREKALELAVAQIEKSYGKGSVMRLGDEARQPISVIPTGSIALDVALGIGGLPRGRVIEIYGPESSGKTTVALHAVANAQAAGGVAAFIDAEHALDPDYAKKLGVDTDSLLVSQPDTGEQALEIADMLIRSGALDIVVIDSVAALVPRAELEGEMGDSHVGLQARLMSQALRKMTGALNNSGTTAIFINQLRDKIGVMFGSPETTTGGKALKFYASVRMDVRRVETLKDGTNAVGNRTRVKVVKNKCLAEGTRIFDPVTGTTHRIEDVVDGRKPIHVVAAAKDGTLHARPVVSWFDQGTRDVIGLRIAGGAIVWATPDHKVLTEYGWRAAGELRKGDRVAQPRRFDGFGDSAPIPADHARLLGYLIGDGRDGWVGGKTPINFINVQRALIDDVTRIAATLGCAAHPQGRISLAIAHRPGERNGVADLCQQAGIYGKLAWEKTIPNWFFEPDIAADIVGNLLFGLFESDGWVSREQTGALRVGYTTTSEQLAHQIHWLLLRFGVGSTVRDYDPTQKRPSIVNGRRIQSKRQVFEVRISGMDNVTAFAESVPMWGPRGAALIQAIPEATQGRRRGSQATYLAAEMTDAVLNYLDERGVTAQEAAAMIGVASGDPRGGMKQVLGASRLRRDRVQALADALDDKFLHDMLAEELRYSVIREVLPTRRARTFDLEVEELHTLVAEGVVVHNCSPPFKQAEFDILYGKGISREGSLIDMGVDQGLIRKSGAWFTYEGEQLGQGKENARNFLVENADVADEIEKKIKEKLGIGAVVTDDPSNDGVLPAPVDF

[7] = microbe, parasite or virus in culture; format: functional; conditions: Mycobacterium tuberculosis
Cytochrome P450 2D6 = Cytochrome P450 2D6 (Homo sapiens, UniProt P10635);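 also: CYP2D6 member of a cytochrome P450 panel assay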
Cytochrome P450 3A4 = Cytochrome P450 3A4 (Homo sapiens, UniProt P08684);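 also: CYP3A4 tested as one member of a cytochrome P450 panel screen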
Cytochrome P450 2C9 = Cytochrome P450 2C9 (Homo sapiens, UniProt P11712)
[8] = NIH-3T3 fibroblast cytotoxicity, dose response, cytotoxicity control, cell-based, fluorescence, Alamar Blue, secondary assay (AID 2327); format: functional;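 also: NIH-3T3 mouse fibroblasts cultured with fluconazole at 8 µg/mL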
[9] = fluconazole-exposed Candida albicans growth modulators – fluorescence, retest, confirmation (AID 2467); format: functional, cell-based
[10] = Trypanosoma cruzi growth suppression in host cells – NIH3T3 host cells, beta-gal luminescence, confirmation (AID 2044); format: functional, cell-based;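 also: intracellular parasites grown in NIH/3T3 mouse fibroblasts as host cells; luminescent beta-galactosidase reporter signal from transgenic T. cruzi replicating inside host cells; inhibitors lower the luminescence signal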
[11] = NIH3T3 cell viability loss – ATP luminescence, mouse fibroblasts, counter-screen, dose response (AID 2010); format: functional, cell-based;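 also: cells exposed to compound for about 90 hours before reading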

Chain of Cytochrome P450 3A4 (P08684 whole entry): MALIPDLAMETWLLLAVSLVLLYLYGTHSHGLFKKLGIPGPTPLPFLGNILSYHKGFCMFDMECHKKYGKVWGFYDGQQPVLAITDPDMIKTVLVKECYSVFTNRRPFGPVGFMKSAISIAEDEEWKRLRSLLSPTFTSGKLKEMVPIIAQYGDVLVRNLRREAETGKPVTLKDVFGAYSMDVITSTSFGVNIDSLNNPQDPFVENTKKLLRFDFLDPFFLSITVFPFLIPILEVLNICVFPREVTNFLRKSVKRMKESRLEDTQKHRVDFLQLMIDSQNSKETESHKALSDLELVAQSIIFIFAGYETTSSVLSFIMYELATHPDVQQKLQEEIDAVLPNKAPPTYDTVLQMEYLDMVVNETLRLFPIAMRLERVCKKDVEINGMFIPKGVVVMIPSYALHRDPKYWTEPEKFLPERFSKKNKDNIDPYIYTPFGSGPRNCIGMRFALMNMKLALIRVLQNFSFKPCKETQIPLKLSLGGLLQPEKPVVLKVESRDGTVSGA
Chain of Cytochrome P450 2D6 (P10635 whole entry): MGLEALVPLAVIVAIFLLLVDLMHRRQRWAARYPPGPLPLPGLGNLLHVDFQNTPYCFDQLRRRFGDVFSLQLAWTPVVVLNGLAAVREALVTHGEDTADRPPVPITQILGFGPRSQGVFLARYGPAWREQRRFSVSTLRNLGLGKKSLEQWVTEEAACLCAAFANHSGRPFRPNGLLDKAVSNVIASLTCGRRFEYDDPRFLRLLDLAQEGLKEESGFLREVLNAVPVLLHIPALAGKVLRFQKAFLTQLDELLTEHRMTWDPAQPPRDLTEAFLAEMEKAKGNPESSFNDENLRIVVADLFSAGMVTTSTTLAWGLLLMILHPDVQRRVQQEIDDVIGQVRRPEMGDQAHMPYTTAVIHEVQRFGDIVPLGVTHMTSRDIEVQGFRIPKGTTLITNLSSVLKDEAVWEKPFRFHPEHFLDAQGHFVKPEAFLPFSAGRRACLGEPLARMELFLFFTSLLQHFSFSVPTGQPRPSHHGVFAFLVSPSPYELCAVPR
Chain of Cytochrome P450 2C9 (P11712 whole entry): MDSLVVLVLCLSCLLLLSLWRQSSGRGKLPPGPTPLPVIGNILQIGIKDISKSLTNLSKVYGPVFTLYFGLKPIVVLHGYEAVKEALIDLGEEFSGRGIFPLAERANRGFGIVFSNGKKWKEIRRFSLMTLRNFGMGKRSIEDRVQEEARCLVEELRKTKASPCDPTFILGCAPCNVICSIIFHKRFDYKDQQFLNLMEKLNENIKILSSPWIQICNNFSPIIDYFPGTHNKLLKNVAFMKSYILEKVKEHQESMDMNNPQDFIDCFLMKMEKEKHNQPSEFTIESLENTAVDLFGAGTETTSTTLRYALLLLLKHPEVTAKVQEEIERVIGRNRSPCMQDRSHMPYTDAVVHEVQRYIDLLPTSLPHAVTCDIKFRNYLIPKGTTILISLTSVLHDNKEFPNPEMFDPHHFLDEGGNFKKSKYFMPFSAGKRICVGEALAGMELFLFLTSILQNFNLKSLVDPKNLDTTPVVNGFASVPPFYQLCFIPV

Structure (SMILES) | EC50 [1] | EC50 [2] | EC50 [3] | EC50 [4] | EC50 [5] | EC50 (H4) | also measured
Cc1nn(Cc2ccccc2Cl)c(C)c1NC(=O)CCCn1nc(C)c([N+](=O)[O-])c1C | 21 µM (active) | > 120 µM (not active) | > 120 µM (not active) |  |  |  | 
CC(=O)c1cccc(NC(=O)CN2C(=O)COc3ccc(S(=O)(=O)N4CCOCC4)cc32)c1 | > 120 µM (not active) | > 120 µM (not active) | > 120 µM (not active) |  |  |  | 
COc1ccc2oc(=O)c(-c3nc4ccccc4o3)cc2c1 |  |  |  | 3.5 µM (active) | 17.2 µM (active) | 24.1 µM (active) | 
NC(=O)[C@H](Cc1cc2ccccc2s1)NC(=O)[C@@H]1CC2(CC(c3cccc(NC(=O)[C@@H]4CCC(=O)N4)c3)=NO2)CN1C(=O)/C=C/c1c(F)cccc1Cl (stereo partly specified) |  |  |  |  |  |  | AC50 [6]: 20 µM (active); EC50 (Protein RecA): 168 µM (active)
COc1ccc(OC)c(NC(=O)CN2C(=O)CSc3ccc(S(=O)(=O)N4CCCC4)cc32)c1 | > 120 µM (not active) | > 120 µM (not active) | > 120 µM (not active) |  |  |  | 
COc1ccc(Cl)cc1N(CC(=O)Nc1ccccc1C(=O)NCc1ccco1)S(C)(=O)=O | > 120 µM (not active) | > 120 µM (not active) | > 120 µM (not active) |  |  |  | 
CC1CCCC2(C1)N=C(S)c1c(sc3c1CCCC3)N2 (stereo unspecified) |  |  |  | > 120 µM (not active) | > 120 µM (not active) | > 120 µM (not active) | 
N#Cc1ccc(-c2ccc(F)cc2)nc1Oc1ccc(F)cc1 | > 120 µM (not active) | 22.6 µM (active) | > 120 µM (not active) |  |  |  | 
CCOP(=O)(OCC)c1nc(-c2ccc(Cl)cc2Cl)oc1N1CCCCC1 | > 120 µM (not active) | > 120 µM (not active) | 20.3 µM (active) |  |  |  | 
O=C(O)c1cc(NN=C2CCN(Cc3ccccc3)CC2)ccc1Cl |  |  |  | > 120 µM (not active) | 22.9 µM (active) | 18.7 µM (active) | 
Brc1ccc(C2=NC(Cc3ccccc3)CO2)cc1 (stereo unspecified) |  |  |  | 3.58 µM (active) | 3.81 µM (active) | 7.48 µM (active) | 
O=C(COc1ccc(Oc2ccccc2)cc1)NCc1cn2ccccc2n1 | 12.7 µM (active) | 14.8 µM (active) | 8.5 µM (active) |  |  |  | 
OCc1ccc[n+](/C(C([S-])=Nc2ccc(SC(F)F)cc2)=C(/O)c2ccc(Cl)s2)c1 |  |  |  | 13.4 µM (active) | 14.2 µM (inconclusive) | 18.2 µM (active) | 
COc1ccccc1-n1c2nc3ccccc3nc2c2c(=O)n(-c3cc(C)cc(C)c3)cnc21 | > 120 µM (not active) | 0.528 µM (active) | > 120 µM (not active) |  |  |  | 
COc1ccc(/C=C2/C(=O)N(c3ccccc3)N=C2C)cc1OC |  |  |  |  |  |  | AC50 [6]: 3.78 µM (active); EC50 (Protein RecA): 1.46 µM (active)
Cc1ccc(-c2ccc(NC(=O)C3C4C=CC(C4)C3C(=O)O)cc2)o1 (stereo unspecified) |  |  |  | 2.07 µM (active) | 33.5 µM (active) | > 120 µM (not active) | 
Cc1ccccc1Nc1nc(N)nc(COC(=O)c2ccccc2)n1 |  |  |  | 40.5 µM (active) | 25.1 µM (active) | 25.7 µM (active) | 

Structure (SMILES) | EC50 [1] | EC50 [2] | EC50 [3] | EC50 [4] | EC50 [5] | EC50 (H4) | also measured
O=C(C1CCN(c2nc(-c3ccccc3)nc3c2CCC3)CC1)N1CCCC1 | > 120 µM (not active) | 24.7 µM (active) | 16.7 µM (active) |  |  |  | 
O=C(C1=C[C@@H](c2csc3ccccc23)C[C@@H](OCc2ccc(CO)cc2)O1)N1CCN(Cc2ccc3c(c2)OCO3)CC1 | 11.3 µM (active) | > 120 µM (not active) | 9.17 µM (active) |  |  |  | 
O=C(NCc1nnnn1-c1ccc(F)cc1)c1ccc([N+](=O)[O-])o1 |  |  |  | 8.58 µM (active) | > 60 µM (not active) | 29 µM (active) | CC50 [7]: 19.3 µM (active)
CN1C2=CC=CC=CC2=[N+](C)C12C([N+](=O)[O-])=CC(=[N+]([O-])[O-])C=C2[N+](=O)[O-] (stereo unspecified) |  |  |  | > 120 µM (not active) | > 120 µM (not active) | > 120 µM (not active) | 
COc1cc(C(=O)CSc2nnc(-c3ccc(O)cc3)n2CC2CCCO2)ccc1NC(C)=O (stereo unspecified) |  |  |  |  |  |  | AC50 [6]: > 380 µM (inactive); EC50 (Protein RecA): > 380 µM (inactive)
Cn1c(N)c(-c2nc3cccnc3n2C)sc1=S |  |  |  | > 120 µM (not active) | 9.72 µM (active) | > 120 µM (not active) | 
CC(=O)N(CCC(Cc1ccccc1)c1ccc2c(c1)OCO2)Cc1ccccc1F (stereo unspecified) |  |  |  |  |  |  | AC50 [6]: 3.39 µM (active); EC50 (Protein RecA): 5.78 µM (active)
Cc1nc(S(=O)(=O)N(C)Cc2ccccc2)c(C#N)c(C)c1Cl |  |  |  | 5.83 µM (active) | 60.4 µM (active) | > 120 µM (not active) | 
Cc1ccc2c(c1)c1c(n2CC(O)CN2CCCCCC2)CCCC1 (stereo unspecified) |  |  |  |  |  |  | AC50 [6]: > 380 µM (inactive); EC50 (Protein RecA): > 380 µM (inactive)
O=C(CN1C(=O)S/C(=C\c2ccc(O)cc2)C1=O)c1ccccc1 |  |  |  | 6.38 µM (active) | 6.77 µM (active) | 26 µM (active) | 
COC(=O)COc1ccc(-c2nccc(-c3ccccn3)n2)cc1 | < 0.1 µM (active) | 7.98 µM (active) | 0.159 µM (active) |  |  |  | 
CN1CC[C@@]2(CCCN(C(=O)c3ccco3)C2)C1 |  |  |  |  |  |  | AC50 (Cytochrome P450 2D6): 20 µM (inconclusive); AC50 (Cytochrome P450 3A4): 20 µM (inconclusive)
O=C(CSCc1cc(O)n[nH]1)Nc1ccc(F)cc1 |  |  |  |  |  |  | AC50 [6]: 4.04 µM (active); EC50 (Protein RecA): 1.74 µM (active)
CC(NC(=O)Cc1ccc(F)cc1)c1ccccc1 (stereo unspecified) |  |  |  |  |  |  | AC50 (Cytochrome P450 2D6): 15.8 µM (inconclusive); AC50 (Cytochrome P450 3A4): 25.1 µM (inconclusive); AC50 (Cytochrome P450 2C9): 10 µM (inconclusive)
Cc1nn(-c2ccccc2)c(N2CCCC2)c1/C=N/NC(=O)c1ccccc1O | 29.2 µM (active) | > 120 µM (not active) | 27.3 µM (active) |  |  |  | EC50 [8]: > 150 µM (inactive); EC50 [9]: > 38 µM (not active)
O=C(NNC(=O)c1ccc([N+](=O)[O-])o1)c1ccccc1 |  |  |  |  |  |  | EC50 [10]: 0.13 µM (active); EC50 [11]: > 60 µM (not active); AC50 [6]: 23.5 µM (active); EC50 (Protein RecA): 13.5 µM (active)

From ChEMBL document CHEMBL1201862, “PubChem BioAssay data set” (2004)
